This note sets out measurements from patent publication US7365080B2, “Pharmaceutical compositions comprising thieno[2,3-c]pyridine derivatives and use thereof” (Rimonyx Pharmaceuticals Ltd., priority 2003, dated 2008).

One may read the inhibition as the change of the read-out against control, counted positive when it falls. What is called IC50 is the concentration that gives 50% inhibition. A higher IC50 goes with lower potency.

Test [1] deals with RPMI-8226, MOLT-4, CCR-CEM, K562, SR. Briefly: Leukemia cell lines (SRB): cell death. Format: cell-based. The following applies: 48 hours. Here is the method:
(§1) Each cell line (RPMI-8226 (Multiple Myeloma), MOLT-4 (Acute lymphoblastic leukemia), CCR-CEM (Human T Cell leukemia), K562 (Chronic myeloid leukemia), SR (Chronic myeloid leukemia) was pre-incubated on a microtiter plate (Monks A et al, J. Natl. Cancer Inst., 83:757-766, 1991). Inhibitor compounds were then added at different concentrations (10^−8-10^−4 Molar) and the culture incubated for 48 hours. A sulforhodamine B (SRB) protein assay was used to estimate cell viability or growth (Skehan P et al, J. Natl. Cancer Inst., 82:1107-1112, 1990). Compound no. 1 inhibited the growth of the cell lines RPMI-8226, MOLT4, CCR-CEM, K562 and SR to 100%, 100%, 100%, 100% and 93%, respectively. There was negligible cell death (less than 15%).

The subject of the next test is MCF7 (Breast carcinoma). In words: Inhibition of growth of cancer cell lines (alamar blue). Format: cell-based. The following applies: Homo sapiens, 48 hours. Here is the method:
(§2) Each cell line (MCF7 (Breast carcinoma), NCI-H460 (Non-small cell lung carcinoma), and SF-268 (glioma) was pre-incubated on a microtiter plate. Inhibitor compounds were then added at a concentration of 0.1 μM and the culture incubated for 48 hours. End-point determinations were made with alamar blue (Gray G D, Wickstrom E, Biotechniques 21(5) 780-782, 1996). Results for each compound are presented as the percent of growth of the treated cells as compared to the untreated cells. Compounds, which reduce the growth of any one of the cell lines to approximately 32% or less were considered suitable for further and more extensive study (Monks A et al, J. Natl. Cancer Inst., 83:757-766, 1991. Compound no. 1 inhibited the growth of the cell lines MCF7, NCI-H460, and SF-268 by 99%, 100% and 99%, respectively.

For test [2], the system named is NCI-H460 (Non-small cell lung carcinoma). The test is described as above. It is filed as cell-based. The following applies: Homo sapiens, 48 hours. The protocol: as §2
The subject of the next test is SF-268 (glioma). Described as above. It is filed as cell-based. The following applies: Homo sapiens, 48 hours. The protocol:
as §2

In another test the target is T1, L-Selectin (Homo sapiens, UniProt P14151).
T1 construct: purchased Research and Development Systems 728-LS
T1 sequence (P14151 39-332 limits assumed): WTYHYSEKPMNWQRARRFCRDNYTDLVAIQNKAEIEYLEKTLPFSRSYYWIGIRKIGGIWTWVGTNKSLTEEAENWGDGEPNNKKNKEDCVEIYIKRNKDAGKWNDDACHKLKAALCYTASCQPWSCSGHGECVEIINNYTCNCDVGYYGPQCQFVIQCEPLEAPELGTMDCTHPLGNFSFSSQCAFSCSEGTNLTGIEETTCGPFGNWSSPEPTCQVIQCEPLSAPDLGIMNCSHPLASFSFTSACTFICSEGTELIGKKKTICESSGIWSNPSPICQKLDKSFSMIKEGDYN
Briefly: ELISA: inhibition of L-selectin/IgG binding to immobilized heparin (Heparin-BSA). The following applies: L-Selectin binding to heparin. Here is the method:
The inhibitory effect of the compounds of the present invention can be evaluated by several methods in vitro. One assay for measuring GAG-ECAM binding, exemplified herein below, detects the binding of L selectin/IgG to immobilized heparin. Another assay utilizes immobilized L-selectin, or L-selectin fused to protein domains other than IgG. The amount of bound L-selectin is determined by an ELISA assay using, for example, a monoclonal antibody raised against L-selectin, which is conjugated to horseradish peroxidase. […] The Dregg-55 antibody was also shown to inhibit L-selectin-dependent adhesion in vitro, neutrophil accumulation in vitro and inflammation in vivo (Co M. S. et al, Immunotechnology 493: 253-266, 1999).
An in vitro assay was used to assess the ability of test compounds according to formula I to inhibit the interactions of L-selectin with HS-GAGs. The assay was suitable for determining the concentration required for 50% inhibition (IC-50) for each specific compound. In the assay, the GAG used was heparin. Thus, porcine intestinal mucosa heparin conjugated to Bovine Serum Albumin (Heparin-BSA; Sigma Cat. No. H0403) at […] in Phosphate Buffered Saline (PBS; pH 6.5) was added to a 96 well polystyrene ELISA plate (NUNC Cat. No. 442404; 0.1 ml per well) and incubated Over Night (ON) at 4° C. Following the incubation, the plate was washed thoroughly, by immersion, with de-ionized water and PBS (pH 6.5). The ELISA plate was then blocked with BSA (ICN Cat. No.160069, 3%, 200 μl per well) for 1 hour at Room Temperature (RT). Following blocking, the plate was washed with de-ionized water, and then with PBS (pH 6.5) containing Tween 20 (Sigma Cat. No. P-1379, 0.05%). Compounds were synthesized or purchased from ChemDiv Labs (San Diego, Calif.), dissolved in DMSO, diluted in PBS and added to the wells at various concentrations in the range of 0.01 to 300 μM. Recombinant Human L-Selectin/IgG (Research and Development Systems Cat. No.728-LS) dissolved in PBS supplemented with BSA (0.1%) and calcium chloride (1 mM) was added to the ELISA plate (100 μl per well) and incubated for 60 minutes at RT with shaking. Following incubation, the plate was washed with de-ionized water and three times with PBS (pH 6.5) containing Tween 20. Anti-Human IgG Peroxidase Conjugate (1:5000; Sigma Product No. A8667) diluted in PBS supplemented with BSA (0.1%) and calcium chloride (1 mM) was added to the ELISA plate (100 μl per well) and incubated for 30 minutes at RT with shaking. The plate was then washed with de-ionized water and three times with PBS (pH 6.5) containing Tween 20. The peroxidase substrate cromogen, TMB (Dako Cat. No. S1599) was added (100 μl per well) to the ELISA plate and incubated at room temperature. After 15 minutes ELISA Stop Solution (hydrochloric acid 1N, sulfuric acid 3N) was added (200 μl per well) to stop the peroxidase catalyzed colorimetric reaction. The Optical Density (OD) of the samples was measured at 450 nm using an ELISA plate reader (Dynatech MR5000). Data were analyzed with Graphpad Prism software and IC-50 values were established. The P-selectin assay was carried out in a similar fashion, except that Recombinant Human P-Selectin/IgG (Research and Development Systems Cat.No.137-PS) was used.

The test system of test [3] is K562 (Chronic myeloid leukemia). Briefly: Inhibition of leukemia cell growth (SRB). The following applies: 10^−8-10^−4 Molar, 48 hours. Format: cell-based. The protocol: as §1
Test [4] concerns CCR-CEM (Human T Cell leukemia). In words: Inhibition of leukemia cell growth (SRB). Format: cell-based. The following applies: 10^−8-10^−4 Molar, 48 hours. The protocol: as §1
Test [5] relates to RPMI-8226 (Multiple Myeloma). Briefly: Inhibition of leukemia cell growth (SRB). Format: cell-based. The following applies: 10^−8-10^−4 Molar, 48 hours. Here is the method: as §1
For test [6], the system named is SR (Chronic myeloid leukemia). In words: Inhibition of leukemia cell growth (SRB). Format: cell-based. The following applies: 10^−8-10^−4 Molar, 48 hours. The protocol: as §1
Test [7] relates to MOLT-4 (Acute lymphoblastic leukemia). In words: Inhibition of leukemia cell growth (SRB). It is filed as cell-based. The following applies: MOLT4; 10^−8-10^−4 Molar, 48 hours. Here is the method: as §1
For test [8], the system named is Human T-lymphocytes on human endothelial cells. In words: T-lymphocyte rolling on endothelial cells under shear flow. Format: cell-based. The following applies: for inhibition at 25 µM: Homo sapiens, high shear flow, read-out: inhibition of cell rolling; for % rolling: test compound (25 μM), shear flow. Here is the method:
Human T-lymphocytes were passed over a layer of human endothelial cells according to the method of Lawrence and Springer (Cell 65: 859-873, 1991). At high shear flow, migrating T-lymphocytes adhered transiently and intermittently to the endothelial cells as a consequence of HS-GAG-ECAM interaction. The resulting T-cell rolling was recorded by video camera and the number of rolling cells per defined area during a constant period of time was determined. Soluble heparin (competitor of cell surface GAGs) abolished T-cell rolling under high shear flow conditions. Compounds no. 1, 11 and 25, each at 25 μM, inhibited cell rolling by 90, 90 and 70%, respectively.

A further test has as its system Mice. Briefly: TNBS induced colitis (Inflammatory Bowel Disease model). Format: in vivo, mouse. Here is the method: Control mice (12 per group) were injected intraperitoneally (IP) with Test Compound (TC) Vehicle (Tween 80, 5%, 200 μl). […] The control and experimental mice were injected once per day for 7 successive days. […] 11 in the same experimental model. The compound was administered once a day for 7 days in a suspension with 0.5% methylcellulose per os. There were 12 mice per group and the control mice received 0.5% methylcellulose only. Compound no.

Test [9] deals with immobilized heparin / L-selectin/IgG. In words: Assay 1: direct interaction with heparin, pre-incubation versus co-incubation with L-selectin. Format: binding. The following applies: compound 0.1-200 μM, 90 min, washed before L-selectin/IgG. Here is the method: Inhibitor Compounds at final concentration 0.1-200 μM were incubated in the ELISA plate for 90 min, and then washed with incubation buffer. After washing, L-selectin/IgG was added to the wells pre-incubated with compounds. At the same time, in separate control wells, L-selectin was co-incubated with inhibitor Compounds for 90 min. Following the incubation, L-selectin bound to the plate was quantified by antibody conjugated to Horse Radish Peroxidase and OD measurement as performed as described in Example 5.

A further test relates to Lewis rats. Briefly: Experimental Autoimmune Encephalomyelitis (MBP p87-99). The following applies: intra-peritoneal once daily for 3 days, 10 and 35 mg/kg. It is filed as in vivo, rat. The text has this: In autoimmune conditions, T cells reactive to self-antigens escape elimination in the thymus and are activated in the periphery, where they can provoke damage in specific organs. EAE, a model of autoimmune disease that is induced in Lewis rats, bears many similarities to the human disease Multiple Sclerosis (MS). T cells found in brain lesions of MS patients have TCR junctional rearrangements that are identical to T cells found in the spinal cords of Lewis rats immunized with a peptide of myelin basic protein MBP p87-99. In addition, a major T and B cell response in MS patients is directed to MBP p87-99.
EAE is induced in rats by immunization with MBP p87-99. The inhibitor Compounds are administered once daily by intra-peritoneal injection for 3 consecutive days starting 1 day before the appearance of EAE symptoms (day 12 after EAE induction). The degree of clinical disease is scored as follows: 0=no signs; 1=loss of tail tonicity; 2=paralysis of hind limbs; 3=paralysis of all four limbs 4=quadriplegic animal in a moribund state.

The test system of the next test is BALB/c mice. Briefly: Thioglycollate-induced leukocyte and neutrophil infiltration into mouse peritoneum. Format: in vivo. The following applies: intraperitoneal, 1 hour before thioglycollate; 3 hours. Here is the method:
The ability of compounds of the present invention to reduce leukocyte migration to sites of acute inflammation was evaluated in BALB/c mice using a thioglycolate-induced model of peritonitis. In this animal model, interactions of L- and P-selectin with HS-GAGs have been implicated in neutrophil infiltration (Nelson, R. M., 82:3253-3258, 1993; Xie, X. et al., J. Biol. Chem., 275:34818-34825, 2000).
BALB/c mice (6 weeks old, ˜20 g in weight, 15 mice/group) received intraperitoneal injection of an inhibitor compound in 0.2 ml DMSO/Tween/sterile saline 1 hour before administration of thioglycollate (Sigma). Control groups received vehicle and sham controls received no thioglycollate. Mice were injected intraperitoneally with 1 ml of 3% thioglycollate broth (Xie, X. et al., J. Biol. Chem., 275, 34818-34825, 2000). Mice were sacrificed after 3 hours, and the peritoneal cavities were ravaged with […] of ice-cold saline containing 2 mM EDTA to prevent clotting. After red blood cell lysis, leukocytes were counted in a hemocytometer. Neutrophils were counted after staining with Türck. Data was expressed as mean±SEM, and statistical analysis was performed by Student t test. A value of P<0.05 was taken to denote statistical significance.

`CC(C)N1CCc2c(sc(NC(=O)c3ccc(S(=O)(=O)N4CCc5ccccc5C4)cc3)c2C(N)=O)C1` [Compound 1, 2-[[(4-(3,4-dihydro-2(1H)-isoquinolinyl)sulfonyl]benzoyl]amino]-6-(1-methylethyl)-4,5,6,7-tetrahydrothieno[2,3-c]pyridine-3-carboxamide]: the cell death entry in test [1] was “less than 15%”. The inhibition at 0.1 µM in the test with MCF7 (Breast carcinoma) worked out at 99%; in test [2] it was 100%; in the test on SF-268 (glioma), 99%. Also, at L-Selectin, the IC50 came out at 13 µM. For the same compound, the “growth inhibited to” value in test [3] is on record as 100%; in [4], 100%; in test [5] it was 100%; in [6] it was 93%; in test [7] it was 100%. Besides, the inhibition at 25 µM in test [8] was 90%. In addition, the “% rolling” value in [8] was 30%.
Compound `CC1(C)Cc2c(sc(NC(=O)c3ccc(S(=O)(=O)N4CCCc5ccccc54)cc3)c2C(N)=O)C(C)(C)N1` [Compound 25] yielded an IC50 on L-Selectin of 12 µM. In test [8], the inhibition at 25 µM came out at 70% and the “% rolling” value is on record as below 10%.
With `CCN1CCc2c(sc(NC(=O)c3ccc(S(=O)(=O)N(CC)CC)cc3)c2-c2nc3ccccc3s2)C1` [Compound 11, 2-[[4-[(diethylamino)sulfonyl]benzoyl]amino]-3-(benzothiazol-2-yl)-6-ethyl-4,5,6,7-tetrahydrothieno[2,3-c]pyridine], the “colonic damage (score 0 to 10), in words” value in the test with Mice (IP once per day for 7 days, 10 and 35 mg/kg) is recorded as “significantly inhibited”. The “colonic damage (score 0 to 10), in words” value in the test with Mice (per os once a day for 7 days, 3, 50 and 100 mg/kg) is listed as “significantly inhibited”. For the same compound, the “level of inhibition of L-selectin binding to heparin, pre-incubation versus co-incubation” value in [9] is listed as “same level of inhibition”. Further, the “clinical signs of EAE (in words)” value in the test with Lewis rats is on record as “significantly inhibited”. In addition, at L-Selectin, the IC50 was determined as 0.35 µM. For the same compound, in test [8], the inhibition at 25 µM was 90% and the “% rolling” value is on record as below 10%. In addition, in the test on BALB/c mice, the “leukocyte migration into the peritoneal cavity (in words)” value is recorded as “inhibited efficiently”.
